target: T1, PIP4K2C (Homo sapiens, UniProt Q8TBX8); assay: HiBiT PIP4K2C degradation assay in MOLT-4 cells (endogenous PIP4K2C C-terminally tagged with HiBiT); type: cell-based; design: untagged in primary human PBMCs and monocyte-derived dendritic cells; conditions: 24 hours incubation, MOLT-4, top concentration 10 micromolar; read-out: HiBIT-degradation MOLT4 PIP4k2C 24 hours DC50
T1 sequence (Q8TBX8 1-421): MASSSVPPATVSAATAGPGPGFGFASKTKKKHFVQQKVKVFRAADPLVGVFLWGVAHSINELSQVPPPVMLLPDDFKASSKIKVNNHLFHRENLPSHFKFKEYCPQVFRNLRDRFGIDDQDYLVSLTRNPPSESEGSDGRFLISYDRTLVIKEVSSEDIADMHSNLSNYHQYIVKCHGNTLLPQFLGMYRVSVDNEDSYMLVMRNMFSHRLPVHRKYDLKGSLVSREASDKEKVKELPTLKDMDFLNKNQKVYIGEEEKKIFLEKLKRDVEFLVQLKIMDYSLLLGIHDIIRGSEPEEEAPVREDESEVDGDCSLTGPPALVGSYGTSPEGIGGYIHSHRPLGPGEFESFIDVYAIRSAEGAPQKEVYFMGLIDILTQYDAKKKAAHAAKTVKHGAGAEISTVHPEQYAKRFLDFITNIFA
Outline: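 MOLT-4 cells with endogenous PIP4K2C C-terminally HiBiT-tagged by CRISPR were treated with a 10-point, 3-fold dilution series from 10 micromolar, in duplicate, for 24 h or 6 h at 37 C. Remaining tagged protein read by HiBiT lytic luminescence; DC50 from Hill-equation fit.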

| DC50 | SMILES |
| --- | --- |
| < 500 nM | O=C1CCC(n2c(=O)oc3cc(C4CCN(CCC5CCN(C(=O)[C@H]6CC[C@H](Nc7ncc(F)c(-c8cccc(-n9ccccc9=O)c8)n7)CC6)CC5)CC4)ccc32)C(=O)N1 (stereo partly drawn) [Compound 321, trans-3-(6-(1-(2-(1-(4-((5-fluoro-4-(3-(2-oxopyridin-1(2H)-yl)phenyl)pyrimidin-2-yl)amino)cyclohexane-1-carbonyl)piperidin-4-yl)ethyl)piperidin-4-yl)-2-oxobenzo[d]oxazol-3 (2H)-yl)piperidine-2,6-dione] |
| < 500 nM | O=C1CCC(Nc2ccc(C3CCN(CCC4CCN(C(=O)[C@H]5CC[C@H](Nc6ncc(F)c(-c7cccc(-n8ccccc8=O)c7)n6)CC5)CC4)CC3)c(F)c2)C(=O)N1 (stereo partly drawn) [Compound 322, trans-3-((3-fluoro-4-(1-(2-(1-((1r,4r)-4-((5-fluoro-4-(3-(2-oxopyridin-1(2H)-yl)phenyl)pyrimidin-2-yl)amino)cyclohexane-1-carbonyl)piperidin-4-yl)ethyl)piperidin-4-yl)phenyl)amino)piperidine-2,6-dione] |
| < 500 nM | O=C1CCC(n2c(=O)oc3cc(C4CCN(CC5CCN(C(=O)[C@H]6CC[C@H](Nc7ncc(F)c(-c8cccc(-n9ccccc9=O)c8)n7)CC6)CC5)CC4)ccc32)C(=O)N1 (stereo partly drawn) [Compound 323, trans-3-(6-(1-((1-(4-((5-fluoro-4-(3-(2-oxopyridin-1(2H)-yl)phenyl)pyrimidin-2-yl)amino)cyclohexane-1-carbonyl)piperidin-4-yl)methyl)piperidin-4-yl)-2-oxobenzo[d]oxazol-3 (2H)-yl)piperidine-2,6-dione] |
| < 500 nM | O=C1CCC(n2c(=O)oc3cc(C4CCN(CCC5CCN(C(=O)[C@H]6C[C@@H](Nc7ncc(F)c(-c8cccc(-n9ccccc9=O)c8)n7)C6)CC5)CC4)ccc32)C(=O)N1 (stereo partly drawn) [Compound 325, cis-3-(6-(1-(2-(1-(3-((5-fluoro-4-(3-(2-oxopyridin-1(2H)-yl)phenyl)pyrimidin-2-yl)amino)cyclobutane-1-carbonyl)piperidin-4-yl)ethyl)piperidin-4-yl)-2-oxobenzo[d]oxazol-3 (2H)-yl)piperidine-2,6-dione] |
| < 500 nM | O=C1CCC(Nc2ccc(N3CCN(CC4CCN(CC(=O)N[C@H]5CC[C@H](Nc6ncc(F)c(-c7cccc(-n8ccccc8=O)c7)n6)CC5)CC4)CC3)c(F)c2)C(=O)N1 (stereo partly drawn) [Compound 326, trans-2-(4-((4-(4-((2,6-dioxopiperidin-3-yl)amino)-2-fluorophenyl)piperazin-1-yl)methyl)piperidin-1-yl)-N-(4-((5-fluoro-4-(3-(2-oxopyridin-1(2H)-yl)phenyl)pyrimidin-2-yl)amino)cyclohexyl)acetamide] |
| < 500 nM | O=C1CCC(Nc2ccc(N3CCC(CN4CCN(CC(=O)N[C@H]5CC[C@H](Nc6ncc(F)c(-c7cccc(-n8ccccc8=O)c7)n6)CC5)CC4)CC3)c(F)c2)C(=O)N1 (stereo partly drawn) [Compound 327, trans-2-[4-[[1-[4-[(2,6-dioxo-3-piperidyl)amino]-2-fluoro-phenyl]-4-piperidyl]methyl]piperazin-1-yl]-N-[4-[[5-fluoro-4-[3-(2-oxo-1-pyridyl)phenyl]pyrimidin-2-yl]amino]cyclohexyl]acetamide] |
| 1000 to 5000 nM | O=C1CCC(n2c(=O)oc3cc(N4CCC(CCN5CCC(C(=O)N[C@H]6CC[C@H](Nc7ncc(F)c(-c8cccc(-n9ccccc9=O)c8)n7)CC6)CC5)CC4)ccc32)C(=O)N1 (stereo partly drawn) [Compound 329, trans-1-[2-[1-[3-(2,6-dioxo-3-piperidyl)-2-oxo-1,3-benzoxazol-6-yl]-4-piperidyl]ethyl]-N-[4-[[5-fluoro-4-[3-(2-oxo-1-pyridyl)phenyl]pyrimidin-2-yl]amino]cyclohexyl]piperidine-4-carboxamide] |
| < 500 nM | O=C1CCC(n2c(=O)oc3cc(N4CCC(CCN5CCC(C(=O)N6CCC(Nc7ncc(F)c(-c8cccc(-n9ccccc9=O)c8)n7)CC6)CC5)CC4)ccc32)C(=O)N1 (centres unmarked) [Compound 330, 3-[6-[4-[2-[4-[4-[[5-fluoro-4-[3-(2-oxo-1-pyridyl)phenyl]pyrimidin-2-yl]amino]piperidine-1-carbonyl]-1-piperidyl]ethyl]-1-piperidyl]-2-oxo-1,3-benzoxazol-3-yl]piperidine-2,6-dione] |
| < 500 nM | O=C1CCC(n2c(=O)oc3cc(C4CCN(CC(=O)N5CCC(O)(C(=O)N6CCC(Nc7ncc(F)c(-c8cccc(-n9ccccc9=O)c8)n7)CC6)CC5)CC4)ccc32)C(=O)N1 (centres unmarked) [Compound 331, 3-(6-(1-(2-(4-(4-((5-fluoro-4-(3-(2-oxopyridin-1(2H)-yl)phenyl)pyrimidin-2-yl)amino)piperidine-1-carbonyl)-4-hydroxypiperidin-1-yl)-2-oxoethyl)piperidin-4-yl)-2-oxobenzo[d]oxazol-3 (2H)-yl)piperidine-2,6-dione] |
| < 500 nM | Cn1c(=O)n(C2CCC(=O)NC2=O)c2ccc(C3CCN(CCC4CCN(C(=O)[C@@H]5CCC[C@H](Nc6ncc(F)c(-c7cccc(-n8ccccc8=O)c7)n6)C5)CC4)CC3)cc21 (stereo partly drawn) [Compound 335, 3-(5-(1-(2-(1-((1R,3S)-3-((5-fluoro-4-(3-(2-oxopyridin-1(2H)-yl)phenyl)pyrimidin-2-yl)amino)cyclohexane-1-carbonyl)piperidin-4-yl)ethyl)piperidin-4-yl)-3-methyl-2-oxo-2,3-dihydro-1H-benzo[d]imidazol-1-yl)piperidine-2,6-dione] |
| < 500 nM | O=C1CCC(n2c(=O)oc3cc(N4CCN(CC5CCN(CC(=O)N[C@H]6CC[C@H](Nc7ncc(F)c(-c8cccc(-n9ccccc9=O)c8)n7)CC6)CC5)CC4)ccc32)C(=O)N1 (stereo partly drawn) [Compound 339, trans-2-(4-((4-(3-(2,6-dioxopiperidin-3-yl)-2-oxo-2,3-dihydrobenzo[d]oxazol-6-yl)piperazin-1-yl)methyl)piperidin-1-yl)-N-(4-((5-fluoro-4-(3-(2-oxopyridin-1(2H)-yl)phenyl)pyrimidin-2-yl)amino)cyclohexyl)acetamide] |
| < 500 nM | O=C1CCC(n2c(=O)oc3cc(N4CCN(CC5CCN(CC(=O)N6CCC(Nc7ncc(F)c(-c8cccc(-n9ccccc9=O)c8)n7)CC6)CC5)CC4)ccc32)C(=O)N1 (centres unmarked) [Compound 340, 3-(6-(4-((1-(2-(4-((5-fluoro-4-(3-(2-oxopyridin-1(2H)-yl)phenyl)pyrimidin-2-yl)amino)piperidin-1-yl)-2-oxoethyl)piperidin-4-yl)methyl)piperazin-1-yl)-2-oxobenzo[d]oxazol-3 (2H)-yl)piperidine-2,6-dione] |
| < 500 nM | O=C1CCC(Nc2ccc(N3CCN(CC4CCN(CC(=O)N5CCC(Nc6ncc(F)c(-c7cccc(-n8ccccc8=O)c7)n6)CC5)CC4)CC3)c(F)c2)C(=O)N1 (centres unmarked) [Compound 341, 3-((3-fluoro-4-(4-((1-(2-(4-((5-fluoro-4-(3-(2-oxopyridin-1(2H)-yl)phenyl)pyrimidin-2-yl)amino)piperidin-1-yl)-2-oxoethyl)piperidin-4-yl)methyl)piperazin-1-yl)phenyl)amino)piperidine-2,6-dione] |
| < 500 nM | O=C1CCC(Nc2ccc(C3CCN(C4CCN(CCC(=O)N5CCC(Nc6ncc(F)c(-c7cccc(-n8ccccc8=O)c7)n6)CC5)CC4)CC3)c(F)c2)C(=O)N1 (centres unmarked) [Compound 343, 3-((3-fluoro-4-(1′-(3-(4-((5-fluoro-4-(3-(2-oxopyridin-1(2H)-yl)phenyl)pyrimidin-2-yl)amino)piperidin-1-yl)-3-oxopropyl)-[1,4′-bipiperidin]-4-yl)phenyl)amino)piperidine-2,6-dione] |

same assay, conditions: read-out: HiBIT-degradation MOLT4 PIP4k2C 24 hours DC50; 24 hours incubation, MOLT-4, top concentration 10 micromolar

| DC50 | SMILES |
| --- | --- |
| < 500 nM | O=C1CCC(Nc2ccc(C3CCN(C4CCN(CCC(=O)N[C@H]5CC[C@H](Nc6ncc(F)c(-c7cccc(-n8ccccc8=O)c7)n6)CC5)CC4)CC3)c(F)c2)C(=O)N1 (stereo partly drawn) [Compound 328, trans-3-(4-(4-((2,6-dioxopiperidin-3-yl)amino)-2-fluorophenyl)-[1,4′-bipiperidin]-1′-yl)-N-(4-((5-fluoro-4-(3-(2-oxopyridin-1(2H)-yl)phenyl)pyrimidin-2-yl)amino)cyclohexyl)propanamide] |
| < 500 nM | Cn1c(=O)n(C2CCC(=O)NC2=O)c2ccc(N3CCC(N4CCC(C(=O)N[C@H]5CC[C@H](Nc6ncc(F)c(-c7cccc(-n8ccccc8=O)c7)n6)CC5)CC4)CC3)cc21 (stereo partly drawn) [Compound 344, trans-1′-(1-(2,6-dioxopiperidin-3-yl)-3-methyl-2-oxo-2,3-dihydro-1H-benzo[d]imidazol-5-yl)-N-(4-((5-fluoro-4-(3-(2-oxopyridin-1(2H)-yl)phenyl)pyrimidin-2-yl)amino)cyclohexyl)-[1,4′-bipiperidine]-4-carboxamide] |

same assay, conditions: read-out: HiBIT-degradation MOLT4 PIP4k2C DC50 (6 hours, marked *); 6 hours of incubation time, rather than 24 hours; MOLT-4, top concentration 10 micromolar

| DC50 | SMILES |
| --- | --- |
| < 500 nM | O=C1CCC(Nc2ccc(C3CCN([C@H]4CC[C@H](C(=O)N[C@H]5CC[C@H](Nc6ncc(F)c(-c7cccc(-n8ccccc8=O)c7)n6)CC5)CC4)CC3)c(F)c2)C(=O)N1 (stereo partly drawn) [Compound 345, trans-4-(4-(4-((2,6-dioxopiperidin-3-yl)amino)-2-fluorophenyl)piperidin-1-yl)-N-(trans-4-((5-fluoro-4-(3-(2-oxopyridin-1(2H)-yl)phenyl)pyrimidin-2-yl)amino)cyclohexyl)cyclohexane-1-carboxamide] |
